Counter-ions that a name gives are not always drawn. Like-named read-outs stand apart in the source and are kept apart here.
Columns and labels:
[1] = system: fibrin-induced microglia activation; experiment: Image-based assay of fibrin-induced microglia activation (HTS and dose response); type: cell-based, rat; conditions: for inhibition at 10 µM / Fibrin % inhibition: primary microglia HTS, fibrin stimulation; for inhibition at 10 µM: read-out: Fibrin % inhibition
[2] = system: LPS-induced microglia activation; experiment: Image-based assay of LPS-induced microglia activation (HTS and dose response); type: cell-based, rat; conditions: for inhibition at 10 µM / LPS % inhibition: primary microglia HTS, LPS stimulation; for inhibition at 10 µM: read-out: LPS % inhibition
[3] = system: fibrin- and LPS-induced microglia activation; experiment: cells; type: cell-based, rat
primary rat microglia [4] = experiment: Cell toxicity (dead cells, size <150 μm2) in LPS assay; conditions: for LPS % cell toxicity: primary microglia HTS, LPS stimulation; for IC50: read-out: Cell Toxicity IC50 (uM) [LPS assay]
primary rat microglia [5] = experiment: Cell toxicity (dead cells, size <150 μm2) in coated fibrin (cFib) assay; conditions: for Fibrin % cell toxicity: primary microglia HTS, fibrin stimulation; for IC50: read-out: Cell Toxicity IC50 (uM) [cFib assay];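 for Fibrin % cell toxicity: share of dead cells sized under 150 µm2 at 10 µM in fibrin-stimulated microglia HTS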
[6] = Rattus norvegicus, Microglia, increased cell size (>800 μm^2) as marker of activation
[7] = Rattus norvegicus, Microglia, 48 h, increased cell size (>800 μm^2) as marker of activation
[8] = quadrant by fibrin and LPS inhibition in HTS of 1907 compounds
[9] = decreased size (<150 μm^2) as marker of toxicity
[10] = increased cell size (>800 μm^2) as marker of activation
[11] = Rattus norvegicus, Microglia, activation = cell size >800 μm2
[12] = Rattus norvegicus, Microglia, 48 h, activation = cell size >800 μm2

SMILES: CCn1cc(C(=O)O)c(=O)c2cc(F)c(N3CCNCC3)nc21 [Enoxacin]
- inhibition at 10 µM [1, 6]: 113%
- inhibition at 10 µM [2, 7]: 119%
- Quadrant (FIG. 5b) [3, 8]: Q2
- LPS % cell toxicity (primary rat microglia [4]; [9]): 12%
- Fibrin % cell toxicity (primary rat microglia [5]; [9]): 84%

SMILES: COC(=O)[C@@H]1CC2=CC(=O)CC[C@]2(C)[C@@]23O[C@@H]2C[C@@]2(C)[C@@H](CC[C@@]24CCC(=O)O4)[C@H]13 [Eplerenore, reference compound]
- Fibrin Selectivity [1]: 8
- Fibrin Selectivity (LOG10) [1]: 0.88
- IC50 ([1]; Table 1, dose response 0.001-20 μM, triplicates, primary rat microglia, 48 h, read-out: Fibrin IC50): 3 µM
- IC50 ([1]; Table 3, read-out: Fibrin IC50 (uM) (Suppl. Table 7)): 3 µM
- IC50 ([1]; dose response, fibrin-induced microglia activation, read-out: Fibrin IC50): 3 µM
- IC50 ([1]; fibrin-induced microglia activation, dose response, read-out: Fibrin IC50 (uM) (Suppl. Table 7)): 3 µM
- Fibrin % inhibition [1, 10]: 63%
- IC50 ([2]; LPS-induced microglia activation, dose response, read-out: LPS IC50 (uM) (Suppl. Table 7)): > 20 µM
- IC50 ([2]; Table 1, dose response 0.001-20 μM, triplicates, primary rat microglia, 48 h, read-out: LPS IC50): > 20 µM
- IC50 ([2]; Table 3, read-out: LPS IC50 (uM) (Suppl. Table 7)): > 20 µM
- IC50 ([2]; dose response, LPS-induced microglia activation, read-out: LPS IC50): > 20 µM
- LPS % inhibition [2, 10]: 69%
- Hit ([3]; HTS hit classification): HIT (Hits were defined as molecules that exhibited greater than 50% inhibition of either fibrin or LPS activation)
- Quadrant (FIG. 5b) ([3]; HTS of 1907 compounds, quadrant by fibrin and LPS inhibition): Q2
- Quadrant (FIG. 5b) ([3]; Table 1, screen at 10 μM): Q2
- Cherry-picked Hit (Suppl. Table 7) ([3]; Table 3): HIT (Hits were defined as molecules that exhibited greater than 50% inhibition of either fibrin or LPS activation)
- Quadrant (FIG. 5b) ([3]; Table 3, screen at 10 μM): Q2
- Cherry-picked Hit (Suppl. Table 7) ([3]; hit classification in microglia HTS): HIT (Hits were defined as molecules that exhibited greater than 50% inhibition of either fibrin or LPS activation)
- Quadrant (FIG. 5b) [3, 8]: Q2
- LPS % cell toxicity (primary rat microglia [4]; [9]): 2%
- IC50 (primary rat microglia [4]; LPS assay): > 20 µM
- IC50 (primary rat microglia [4]; Table 3): > 20 µM
- Fibrin % cell toxicity (primary rat microglia [5]; [9]): 2%
- IC50 (primary rat microglia [5]; Table 3): > 20 µM
- IC50 (primary rat microglia [5]; cFib assay): > 20 µM

SMILES: C[CH2][Hg][S]c1ccccc1C(=O)O [Ethylmercurithiosalicylic acid]
- Fibrin % inhibition [1, 10]: 109%
- LPS % inhibition [2, 10]: 127%
- Quadrant (FIG. 5b) [3, 8]: Q2
- LPS % cell toxicity (primary rat microglia [4]; [9]): 95%
- Fibrin % cell toxicity (primary rat microglia [5]; [9]): 92%

SMILES: CC(NCCC(c1ccccc1)c1ccccc1)c1ccccc1 (stereo not drawn) [Fendiline hydrochloride, reference compound]
- IC50 ([1]; Rattus norvegicus, Microglia, Table 7, read-out: fib_IC50): 1.75 µM
- inhibition at 10 µM [1, 6]: -33%
- inhibition at 10 µM [2, 7]: 10%
- IC50 ([2]; Rattus norvegicus, Microglia, Table 7, read-out: LPS_IC50): 0.9 µM
- Quadrant (FIG. 5b) ([3]; Table 2, screen at 10 μM): Q4
- Activity ([3]; Table 7, fib = fibrin, LPS, tox = toxicity): fib/LPS
- Quadrant (FIG. 5b) [3, 8]: Q4
- LPS % cell toxicity (primary rat microglia [4]; [9]): 0%
- Fibrin % cell toxicity (primary rat microglia [5]; [9]): 1%

SMILES: CC(C)(Oc1ccc(C(=O)c2ccc(Cl)cc2)cc1)C(=O)O [Fenofibric Acid]
- inhibition at 10 µM [1, 11]: 6%
- inhibition at 10 µM [2, 12]: 9%
- Quadrant (FIG. 5b) [3, 8]: Q4
- LPS % cell toxicity (primary rat microglia [4]; toxicity = cell size <150 μm2): 0%
- Fibrin % cell toxicity (primary rat microglia [5]; toxicity = cell size <150 μm2): 1%

SMILES: CC(C(=O)O)c1cccc(Oc2ccccc2)c1 (stereo not drawn) [Fenoprofen]
- inhibition at 10 µM [1, 11]: -7%
- inhibition at 10 µM [2, 12]: -4%
- Quadrant (FIG. 5b) [3, 8]: Q4
- LPS % cell toxicity (primary rat microglia [4]; toxicity = cell size <150 μm2): 0%
- Fibrin % cell toxicity (primary rat microglia [5]; toxicity = cell size <150 μm2): 0%

SMILES: CC1=C(/C=C/C(C)=C/C=C/C(C)=C/C(=O)Nc2ccc(O)cc2)C(C)(C)CCC1 [Fenretinide]
- inhibition at 10 µM [1, 11]: -42%
- inhibition at 10 µM [2, 12]: 35%
- Quadrant (FIG. 5b) [3, 8]: Q4
- LPS % cell toxicity (primary rat microglia [4]; toxicity = cell size <150 μm2): 0%
- Fibrin % cell toxicity (primary rat microglia [5]; toxicity = cell size <150 μm2): 0%

SMILES: O=C1NCC2(CCN(CCc3ccccc3)CC2)O1 [Fenspiride]
- inhibition at 10 µM [1, 11]: -43%
- inhibition at 10 µM [2, 12]: -1%
- Quadrant (FIG. 5b) [3, 8]: Q4
- LPS % cell toxicity (primary rat microglia [4]; toxicity = cell size <150 μm2): 0%
- Fibrin % cell toxicity (primary rat microglia [5]; toxicity = cell size <150 μm2): 1%

SMILES: O=C(COc1ccc(Cl)cc1)N1CCN(Cc2ccc3c(c2)OCO3)CC1 [Fipexide Hydrochloride]
- inhibition at 10 µM [1, 11]: -15%
- inhibition at 10 µM [2, 12]: 11%
- Quadrant (FIG. 5b) [3, 8]: Q4
- LPS % cell toxicity (primary rat microglia [4]; toxicity = cell size <150 μm2): 0%
- Fibrin % cell toxicity (primary rat microglia [5]; toxicity = cell size <150 μm2): 0%

SMILES: N#Cc1nn(-c2c(Cl)cc(C(F)(F)F)cc2Cl)c(N)c1[S+]([O-])C(F)(F)F (stereo not drawn) [Fipronil]
- inhibition at 10 µM [1, 11]: -5%
- inhibition at 10 µM [2, 12]: 12%
- Quadrant (FIG. 5b) [3, 8]: Q4
- LPS % cell toxicity (primary rat microglia [4]; toxicity = cell size <150 μm2): 0%
- Fibrin % cell toxicity (primary rat microglia [5]; toxicity = cell size <150 μm2): 1%

SMILES: CC1(C)OC(=O)C(OCC2CC2)=C1c1ccc(S(C)(=O)=O)cc1 [Firocoxib]
- inhibition at 10 µM [1, 11]: -10%
- inhibition at 10 µM [2, 12]: 11%
- Quadrant (FIG. 5b) [3, 8]: Q4
- LPS % cell toxicity (primary rat microglia [4]; toxicity = cell size <150 μm2): 1%
- Fibrin % cell toxicity (primary rat microglia [5]; toxicity = cell size <150 μm2): 1%

SMILES: O=C(NCC1CCCCN1)c1cc(OCC(F)(F)F)ccc1OCC(F)(F)F (stereo not drawn) [Flecainide]
- inhibition at 10 µM [1, 11]: -35%
- inhibition at 10 µM [2, 12]: 5%
- Quadrant (FIG. 5b) [3, 8]: Q4
- LPS % cell toxicity (primary rat microglia [4]; toxicity = cell size <150 μm2): 0%
- Fibrin % cell toxicity (primary rat microglia [5]; toxicity = cell size <150 μm2): 0%
